Source: ChEMBL document CHEMBL1158674, “Jimenezin, a Novel Annonaceous Acetogenin from the Seeds of Rollinia mucosa Containing Adjacent TetrahydrofuranTetrahydropyran Ring Systems ,1” (J Nat Prod, 1998)
Converted amounts (≈) assume the structure as drawn.

What was measured:
A549 = assay: Cytotoxicity against human A549 cells after 7 days by MTT assay; type: functional; settings: A549, 168 h, read-out: ED50 (the source's name)
MCF7 = assay: Cytotoxicity against human MCF7 cells after 7 days by MTT assay; type: functional; settings: MCF7, 168 h, read-out: ED50 (the source's name)
HT-29 = assay: Cytotoxicity against human HT-29 cells after 7 days by MTT assay; type: functional; settings: HT-29, 168 h, read-out: ED50 (the source's name)
A498 = assay: Cytotoxicity against human A498 cells after 7 days by MTT assay; type: functional; settings: A498, 168 h, read-out: ED50 (the source's name)
PC-3 = assay: Cytotoxicity against human PC3 cells after 7 days by MTT assay; type: functional
MIA PaCa-2 = assay: Cytotoxicity against human MIAPaCa2 cells after 7 days by MTT assay; type: functional
Artemia = assay: Toxicity in brine shrimp; type: organism-based; settings: in vivo

| Compound | EC50 (A549) | EC50 (MCF7) | EC50 (HT-29) | EC50 (A498) | EC50 (PC-3; Homo sapiens, PC-3, 168 h, read-out: ED50 (the source's name)) | EC50 (MIA PaCa-2; Homo sapiens, MIA PaCa-2, 168 h, read-out: ED50 (the source's name)) | Activity (Artemia) | ED50 (PC-3) | ED50 (MIA PaCa-2) |
| --- | --- | --- | --- | --- | --- | --- | --- | --- | --- |
| COc1cccc2c1C(=O)c1c(O)c3c(c(O)c1C2=O)C[C@@](O)(C(=O)CO)C[C@@H]3O[C@H]1C[C@H](N)[C@H](O)[C@H](C)O1 [DOXORUBICIN] | 0.00447 µg/mL (≈ 0.00822 µM) | 0.0897 µg/mL (≈ 0.165 µM) | 0.0162 µg/mL (≈ 0.0298 µM) | 0.0011 µg/mL (≈ 0.00202 µM) | 0.0213 µg/mL (≈ 0.0392 µM) | 0.00288 µg/mL (≈ 0.0053 µM) | – | – | – |
| CCCCCCCCCC[C@@H]1O[C@H]([C@@H]2CC[C@H]([C@H](O)CCCCCCCCCC[C@@H](O)CC3=C[C@H](C)OC3=O)O2)CC[C@H]1O [JIMENEZIN] | 0.0164 µg/mL (≈ 0.0263 µM) | > 0.1 µg/mL | 0.00425 µg/mL (≈ 0.00682 µM) | 0.0494 µg/mL (≈ 0.0793 µM) | – | – | 5.7 ×10⁻³ ug/ml | 2.77 ×10⁻⁴ ug/ml | 1.69 ×10⁻⁴ ug/ml |
